We go through one molecule from article PMC8020795 (Proceedings of the National Academy of Sciences of the …, 2021).

Entries after “also recorded” stand apart in the source; their conditions may differ. A value given as a limit tells only on which side of the number the result lay.

Data set [1] is described as follows: in vivo. To be noted: male, C57BL/6, mouse, in vivo, sc, 6 mg/kg. On the procedure:
Pharmacokinetics and toxicological studies
Male C57BL/6 mice, each weighing 23.4–25.4 g, were quarantined for 1 week before drug treatment. Compounds dissolved in 100% saline were individually given to mice (n = 3) subcutaneously (6 mg/kg; nonfasted mice). Blood samples were collected via cardiac puncture at defined time points (0 (immediately before dosing), 0.03, 0.08, 0.25, 0.5, 1, 2, and 4 h after dosing) and then stored at −80 °C. The volume of the dosing solution given was 100 µL for each mouse. The plasma samples were analyzed by liquid chromatography– tandem mass spectrometry (LC–MS/MS), and the data were calculated by a standard noncompartmental method using the Kinetica software program (InnaPhase). […]

The nature of data set [2]: Metabolic stability in liver microsomes. In kind it is in vitro ADME. Particulars: mouse, rat, dog, and human. An excerpt:
Figure S4. The metabolic stabilities of BPRCX807 in liver microsomes. BPRCX807 is […]
A general note: Liver microsomes are a subcellular fraction often used to study metabolism.

Data set [3] deals with 65 other nonprimary targets (receptors and ion channels). Nature of the data set: Off-target standard assays, remaining panel. It is filed as binding. To be noted: 10 µM. An excerpt:
Table: List of genes examined by real-time PCR and the primer sequences used.
Genes Forward primers Reverse primers […]
Vim 5’-[…]-3’ 5’-[…]-3’ […]
Zeb2 5’-[…]-3’ 5’-[…]-3’
Twist1 5’-[…]-3’ 5’-[…]-3’
Cdh1 5’-[…]-3’ 5’-[…]-3’
Mta3 5’-[…]-3’ 5’-[…]-3’ […]
Off-target standard assays
Methods employed in this study have been adapted from the scientific literature to […]
maximize reliability and reproducibility. Reference standards were run as an integral part of […]
each assay to ensure the validity of the results obtained. Radioligand binding Assays were […]
performed under conditions described in the accompanying "Methods" section of this report […]
by Eurofins Panlabs, Inc (Taipei, Taiwan, ROC).
BPRCX807 were tested in the hERG (hERG-CHO, automated patch-clamp) assay and determined at Eurofins Panlabs (Missouri, USA). The experiment was accepted in accordance with Eurofins validation Standard Operating Procedure.
Selectivity Screening of various chemokine receptors
The results were performed by Eurofins DiscoverX (Fremont, California, USA). The

For data set [4], the system named is HCA-1 cells. Nature of the data set: Wound healing assay. To be noted: CXCL12 100 ng/mL, BPRCX807 10 μM, 24, 48, 72 h. In kind it is cell-based, murine. On the procedure:
[3-(2-Aminomethyl-oxazol-4-yl)-propyl]-[3-(tert-butoxycarbonyl-cyclohexyl-amino)- propyl]-carbamic acid tert-butyl ester (Linker 1). A mixture of L1-6 (10.35 g, 16.5 mmol) and 10% Pd/C (4.66 g) in iso-propanol (310 mL) was stirred under H2(g) at 50 °C for 15 h.
The resulting mixture was filtered, and the filtrate was concentrated to afford Linker 1 (7.23 g, […]
Wound healing and invasion assays
Cell migration ability was measured by wound healing assay. HCA-1 cells (5 × 10^5 cells per well) were seeded onto 12-well plates and incubated overnight. When the cell confluence exceeded 90%, scratch wounds were made by scraping a straight line in the middle of the cell layer using the tip of a 1000 µL pipette. After washing the cells with PBS, the cells were incubated in serum-free medium under different treatment conditions (control, 100 ng/mL CXCL12, and 10 µM BPRCX807 with 100 ng/mL CXCL12). Then, 3-4 fields (40×) of each group were randomly chosen and observed by a microscope (IX83, Olympus, Japan) at time points of 0 h, 24h, 48 h and 72 h. For the invasion assay, HCA-1 cells were suspended in RPMI 1640 containing 0.5% FBS and then preincubated with the indicated concentrations of compounds for 10 min at 37 °C. […] After 17.5 h of incubation at 37 °C, the cells in both chambers of the inserts were measured with a CellTiter-Glo Luminescent Cell Viability Assay (Promega, Wisconsin). […]

The subject of data set [5] is orthotopic HCA-1 tumors. Nature of the data set: Orthotopic HCA-1 HCC model. It is filed as in vivo, C3H mice. Particulars: for Overall survival: n = 8. Here is the method:
In vivo hepatocellular carcinoma treatment studies […]
mouse PD-1 (200 µg/mouse; BioXcell, BE0146). The therapeutic efficacy and the changes in immune cells were analyzed after two weeks of treatment. The tumor volume was calculated with the following formula: volume = width × length × height/2. […]
Hematoxylin and Eosin staining
Lung tissue was cut into small pieces and fixed in 4% PFA (in PBS) overnight before being embedded in paraffin wax. The sections were then stained with hematoxylin and eosin (H&E) and observed with an inverted microscope (IX83, Olympus, Japan).
HCA-1 tumor-bearing mice were anesthetized, perfused via intracardiac injection with PBS and then sacrificed. Tumor tissues were collected and harvested in enzyme-containing DMEM cell culture medium (1.5 mg/mL of collagenase type 1A and hyaluronidase; Sigma).
The tissues were cut and ground into smaller pieces and then digested for 1 h at 37 °C to form suspensions of single tumor cells. The suspensions were filtered through a 70-µm cell strainer (Corning, Manassas, VA), and the cells were then incubated with rat anti-mouse CD16/CD32 mAbs to block Fc receptors. After washing 3 times and resuspending in cold flow buffer (1% BSA, 0.1% NaN3 in PBS), the single-cell suspensions were incubated with monoclonal anti-mouse F4/80-PE (eBiosciences, San Diego, CA), 7-AAD, CD3e-APC, CD8a-PE-Cy7, CD45-FITC, CD4-PE (BD Biosciences, East Rutherford, NJ), CD86-APC-

Data set [6] in a line: in vivo. Particulars: ICR, mouse, sc.
Where [7] appears, read: alone or combined with sorafenib.

Broadly, the AUC(0-t) is exposure summed from dosing to a finite time, without extrapolation to infinity. Low values mean low exposure, high ones high exposure. Usually Cmax stands for the peak of the concentration-time curve. For orientation: half-life means the time in which the quantity being followed falls by half. Read a low half-life as rapid decline.

Turning to `Cc1cc(NC2CCN(C(=O)CCNCC(=O)O)CC2)nc(NCc2nc(CCCNCCCNC3CCCCC3)co2)n1` [BPRCX807], in data set [1], the AUC(0-t) was 16500 ng·h/mL, the Cmax is 18800 ng/mL and the half-life was 1 h. For the same molecule, the “Metabolic stability in liver microsomes” value in data set [2] is “metabolically stable”. In addition, the “Inhibition of 65 other nonprimary targets” value in data set [3] was less than 50%. Also, the “CXCL12-induced wound closure rate” value in data set [4] is “significantly suppressed”. Further, the “Lung metastasis (number of lung nodules)” value in data set [5] (BPRCX807 combined with sorafenib, day 24) is “significantly suppress lung metastasis”. In data set [5] (setting [7]), the “Proportion of M1-like CD86+ TAMs in tumors” value was “increasing the proportion” and the “Proportion of M2-like CD206+ TAMs in tumors” value is “decreasing”. Also, the “Tumor size reduction vs. control” value in data set [5] (combination of BPRCX807 (15 mg/kg/d SC) with anti–PD-1 (200 μg/mouse IP), day 24) is given as “more than 95%”. Moreover, the Lung metastasis result in data set [5] (combination with anti–PD-1) is “significantly prevented”. Also, the Overall survival entry in data set [5] (combination with anti–PD-1 vs either alone) is recorded as “significantly prolonged”. Besides, the Tumor volume reduction entry in data set [5] (combination with sorafenib (40 mg/kg/d, oral), BPRCX807 15 mg/kg/d SC minipump) was “roughly 85%”. Besides, in data set [5] (combination with sorafenib vs BPRCX807 (P = 0.0123) or sorafenib (P = 0.0053) alone), the Overall survival result is recorded as “significantly extended”. Moreover, the “F4/80+ TAMs infiltration into tumor (flow cytometry)” value in data set [5] (treatment alone) is listed as “significantly decreased”. Besides, the “CD8+ T cell infiltration into tumors” value in data set [5] (treatment alone, compared to no treatment) is recorded as “moderately increased”. For the same molecule, in data set [5] (treatment alone, day 24), the “Intratumoral mean vessel density (MVD, CD31+ staining)” value is reported as “significantly decrease intratumoral MVD” and the “Lung metastasis (number of lung nodules)” value is on record as “reduced; also recorded: significantly suppress lung metastasis”. Also, the Tumor growth entry in data set [5] (treatment alone, immunotherapy study, day 24) is listed as “moderately inhibiting tumor growth”. Moreover, the MTD in data set [6] is 75 mg/kg.
